In test [1] the target is T1, 5-HT3A receptors (Homo sapiens, UniProt P46098).
T1 sequence (P46098 24-478): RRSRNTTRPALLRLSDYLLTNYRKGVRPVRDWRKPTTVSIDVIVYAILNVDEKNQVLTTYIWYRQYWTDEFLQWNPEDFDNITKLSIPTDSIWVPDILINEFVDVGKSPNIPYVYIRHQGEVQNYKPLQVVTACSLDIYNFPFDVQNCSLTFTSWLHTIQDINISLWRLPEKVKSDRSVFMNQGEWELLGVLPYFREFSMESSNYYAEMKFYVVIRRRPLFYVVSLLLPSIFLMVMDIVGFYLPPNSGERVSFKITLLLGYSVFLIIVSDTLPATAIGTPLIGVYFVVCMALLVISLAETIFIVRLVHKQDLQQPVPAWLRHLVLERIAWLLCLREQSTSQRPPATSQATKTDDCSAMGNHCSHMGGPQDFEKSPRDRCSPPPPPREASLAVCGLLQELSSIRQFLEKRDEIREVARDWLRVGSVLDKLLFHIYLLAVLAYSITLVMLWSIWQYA
Put plainly: biochemical.

The target of test [2] is 5-HT3A receptors. On the set-up: method as in Thompson et al., 2012. The following applies: ref Thompson et al., 2012, cited from earlier work.
Test [3] has as its target T2, 5-HT3AB receptors (Homo sapiens, UniProt O95264+P46098).
T2 sequence (P46098 24-478): T1 sequence (P46098 24-478)
T2 sequence (O95264 22-441): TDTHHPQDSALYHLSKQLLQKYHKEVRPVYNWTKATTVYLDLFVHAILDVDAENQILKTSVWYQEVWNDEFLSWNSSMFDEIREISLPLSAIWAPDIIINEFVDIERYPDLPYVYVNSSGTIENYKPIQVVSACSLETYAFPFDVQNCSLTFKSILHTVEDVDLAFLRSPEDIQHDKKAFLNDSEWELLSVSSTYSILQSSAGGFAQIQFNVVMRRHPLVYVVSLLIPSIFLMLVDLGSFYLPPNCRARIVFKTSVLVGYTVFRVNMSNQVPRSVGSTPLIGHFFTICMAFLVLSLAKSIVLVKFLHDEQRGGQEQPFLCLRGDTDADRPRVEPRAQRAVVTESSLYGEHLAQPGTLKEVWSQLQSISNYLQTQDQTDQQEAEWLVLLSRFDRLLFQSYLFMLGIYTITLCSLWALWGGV
Briefly: Kinetic measurements (association, dissociation) at 5-HT3AB receptors. Type of test: binding. Also noted: expressed in transfected cells; host or cells: HEK 293. The following applies: for koff: from kobs plot; for Kd: from kinetic rates, Equ (4), read-out: Kd(nM) (kon/koff).

The target in test [4] is T2, 5-HT3AB receptors. Put plainly: biochemical. The settings on record: Ki (nM) competition.
The target of test [5] is T1, 5-HT3A receptors. Put plainly: Kinetic measurements (association, dissociation) at 5-HT3A receptors. Type of test: binding. On the set-up: expressed in transfected cells; host or cells: HEK 293.
A further test deals with 5-HT3 receptors. On the set-up: method as in Thompson et al., 2012. The following applies: at μM concentrations; ref Thompson et al., 2012; cited from earlier work.
The target of test [6] is T1, 5-HT3A receptors. Put plainly: biochemical. Also noted: expressed in transfected cells; host or cells: HEK 293. The settings on record: 5-HT3A; tritiated ligand, transfected HEK 293 cells, 0 °C; read-out: Kd (nM) saturation. Type of test: binding.
The target in the next test is α7 nACh receptors (Homo sapiens, UniProt P36544). The following applies: unlabelled VUF10166, ref Thompson et al., 2012; cited from earlier work.
α7 nACh receptors, sequence (P36544 23-502): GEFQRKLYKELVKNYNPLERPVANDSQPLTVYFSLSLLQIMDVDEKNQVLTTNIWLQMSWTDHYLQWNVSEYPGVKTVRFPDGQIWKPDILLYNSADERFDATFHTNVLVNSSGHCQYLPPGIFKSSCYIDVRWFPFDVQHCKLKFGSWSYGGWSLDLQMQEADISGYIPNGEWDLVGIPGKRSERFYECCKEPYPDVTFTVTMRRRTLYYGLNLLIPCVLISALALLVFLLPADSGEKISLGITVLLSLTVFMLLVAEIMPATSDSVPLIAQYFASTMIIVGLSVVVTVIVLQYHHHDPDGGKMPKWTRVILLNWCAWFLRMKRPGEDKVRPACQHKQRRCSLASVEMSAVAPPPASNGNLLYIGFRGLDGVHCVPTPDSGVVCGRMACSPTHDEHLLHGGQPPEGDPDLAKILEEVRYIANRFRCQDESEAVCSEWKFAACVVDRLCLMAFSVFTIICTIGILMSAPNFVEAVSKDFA
A further test deals with T3, 5-HT3A receptor L126C (Homo sapiens, UniProt P46098, L121C).
T3 construct: expressed in transfected cells; host or cells: HEK 293
T3 sequence (P46098 24-478 L121C): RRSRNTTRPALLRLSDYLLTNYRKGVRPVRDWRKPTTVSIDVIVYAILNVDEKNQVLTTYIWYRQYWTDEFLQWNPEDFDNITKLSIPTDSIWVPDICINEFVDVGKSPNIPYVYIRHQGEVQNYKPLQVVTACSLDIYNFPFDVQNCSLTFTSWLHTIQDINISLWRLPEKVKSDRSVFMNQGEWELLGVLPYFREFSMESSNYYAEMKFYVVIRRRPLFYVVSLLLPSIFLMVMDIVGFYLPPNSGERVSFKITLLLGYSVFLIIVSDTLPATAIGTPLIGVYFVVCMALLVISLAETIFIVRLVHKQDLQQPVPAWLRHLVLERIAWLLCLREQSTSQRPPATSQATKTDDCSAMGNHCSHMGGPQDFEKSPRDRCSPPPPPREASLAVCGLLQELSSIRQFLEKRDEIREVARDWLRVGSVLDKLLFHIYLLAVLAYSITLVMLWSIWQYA
Put plainly: Saturation binding of [^3H]VUF10166 at 5-HT3A receptor mutant. The following applies: L126C Kd versus wild type. The method, then: (§1) Mutagenesis was performed using the QuikChange method (Agilent Technologies Inc., California, USA) on human 5-HT3A cDNA (accession number: P46098) cloned into pcDNA3.1 (Invitrogen, Paisley, UK). Cysteine residues were substituted for amino acids throughout each of the binding loops A–E (Fig. 1). To facilitate comparisons with previous work, we use the numbering of the equivalent residues in the mouse 5-HT3A subunit; for human numbering 5 should be subtracted from each residue number.
(§2) All data were analysed using GraphPad Prism 4.03. […].

The target in the next test is T4, 5-HT3A receptor F226C (Homo sapiens, UniProt P46098, F221C).
T4 construct: expressed in transfected cells; host or cells: HEK 293
T4 sequence (P46098 24-478 F221C): as the sequence (P46098 24-478 L121C) above, with C98L, F198C counted along it
The test is described as above. The settings on record: F226C Kd versus wild type. The method, then:
as §1, §2

The target of the next test is T5, 5-HT3A receptor Y153C (Homo sapiens, UniProt P46098, Y148C).
T5 construct: expressed in transfected cells; host or cells: HEK 293
T5 sequence (P46098 24-478 Y148C): as the sequence (P46098 24-478 L121C) above, with C98L, Y125C counted along it
Described as above. The following applies: Y153C Kd versus wild type. The method, then:
as §1, §2

The target of test [7] is T1, 5-HT3A receptors. Briefly: Competition binding with [^3H]VUF10166 at 5-HT3A receptors.
Test [8] deals with T2, 5-HT3AB receptors. Briefly: Competition binding with [^3H]VUF10166 at 5-HT3AB receptors.
Test [9] addresses T1, 5-HT3A receptors. The following applies: competition with 0.7 nM [^3H]BRL43694.
Test [10] concerns the target T2, 5-HT3AB receptors. The settings on record: competition with 0.7 nM [^3H]BRL43694.

“And” between values parts separate entries of the source, which are not always exact repeats. Equal values may be shown once. Read-outs that look alike come from different tables or passages of the source.

The values below come from article PMC4220016, “The binding characteristics and orientation of a novel radioligand with distinct properties at 5-HT3A and 5-HT3AB receptors” (Neuropharmacology, 2014).

For the molecule `CN1CCN(c2nc3ccccc3nc2Cl)CC1` [VUF10166, 2-chloro-3-(4-methylpiperazin-1-yl)quinoxaline], the Ki (usually a measure of affinity in units of concentration, obtained from inhibition or displacement) on 5-HT3A receptors [1] was 0.24 ± 0.11 nM; at 5-HT3AB receptors [4], 37 nM and 36.7 nM. Further, the pKi (commonly −log10 of the Ki, conventionally taken in molar units) at 5-HT3A receptors [2] (5-HT3A receptors) is listed as about 10. In addition, the “affinity at 5-HT3A relative to 5-HT3AB receptors” value in the test on 5-HT3A receptors [2] is on record as about 100 fold. Moreover, the association rate constant (kon) (commonly a measure of how fast the partners come together) was 1.02e+06 M⁻¹ s⁻¹ at 5-HT3AB receptors [3] (first component of two site fit, [^3H]VUF10166 < 3 nM); 120000 M⁻¹ s⁻¹ at 5-HT3AB receptors [3] (second component of two site fit, [^3H]VUF10166 > 3 nM); 1.04e+06 M⁻¹ s⁻¹ at 5-HT3A receptors [5] (slope of plot of kobs versus radioligand concentration, read-out: kon (converted)). Further, the koff (in general, a measure of how fast the partners let go of each other) is 0.0004 s⁻¹ on 5-HT3AB receptors [3] (first component, [^3H]VUF10166 < 3 nM, read-out: koff (converted)); 0.0027 s⁻¹ on 5-HT3AB receptors [3] (second component, [^3H]VUF10166 > 3 nM); 0.00267 s⁻¹ at 5-HT3AB receptors [3] (second component, [^3H]VUF10166 > 3 nM, read-out: koff (converted)); 0.000167 s⁻¹ on 5-HT3A receptors [5] (intercept of plot of kobs versus radioligand concentration, read-out: koff (converted)). In addition, the Kd at 5-HT3AB receptors [3] (first component) is 0.38 nM; on 5-HT3AB receptors [3] (second component (>3 nM)) it was 22.4 nM; at 5-HT3A receptors [5] (calculated from kinetic rates, Equ (4), read-out: Kd(nM) (kon/koff)) it was 0.16 nM; at 5-HT3A receptors [6] it was 0.18 ± 0.04 nM. For the same molecule, the “agonist activity (in words)” value in the test on 5-HT3 receptors is recorded as “low efficacy partial agonist”. Further, the “competition with [^3H]epibatidine (in words)” value at α7 nACh receptors is given as “does not compete”. Besides, the Fold change is reported as about 4 on 5-HT3A receptor L126C, 7 at 5-HT3A receptor F226C and 10 at 5-HT3A receptor Y153C.
Take `NC(N)=NC(N)=Nc1cccc(Cl)c1` [mCPBG, meta-chlorophenylbiguanide]: the “inhibition of specific [^3H]VUF10166 binding (in words)” value at 5-HT3A receptors [7] (5-HT3A) and on 5-HT3AB receptors [8] (5-HT3AB) was “inhibited” throughout. Moreover, the “pIC50 5-HT3A” value is 7.49 ± 0.06 (4) at 5-HT3A receptors [7] (competition with 0.2 nM [^3H]VUF10166) and 6.88 ± 0.13 (7) on 5-HT3A receptors [9]. Besides, the “pIC50 5-HT3AB” value on 5-HT3AB receptors [8] (competition with 0.6 nM [^3H]VUF10166) is 6.07 ± 0.20 (5); at 5-HT3AB receptors [10], 6.64 ± 0.12 (5).
